Data reported in patent publication US20130189764A1, “SELECTIVE GROWTH MEDIA” (Oxide Limited, priority 2000, published 2013).
≈ marks a conversion by molar mass, not a printed value.

Columns and labels:
[1] = tested on: Enterococcus faecalis OCC 640; test: growth on nutrient agar streak plates, pure culture (Example 3); assay type: cell-based; settings: E. faecalis OCC 640, nutrient agar, 0-10 mM tested
Excerpt: Example 1 was repeated using Enterococcus faecalis OCC 640 as the test organism.

[2] = tested on: Klebsiella pneumoniae CMCC 3077; test: growth on nutrient agar streak plates, pure culture (Example 4); assay type: cell-based; settings: K. pneumoniae CMCC 3077, nutrient agar, 0-10 mM tested
Excerpt: Example 1 was repeated using Klebsiella pneumoniae CMCC 3077 as the test organism. The results are shown in FIG. 5, and are qualitatively similar to those obtained in example 2.

K. pneumoniae CMCC 3077 = test: growth on nutrient agar, mixed culture with S. aureus (Example 6); assay type: cell-based, Klebsiella pneumoniae; settings: K. pneumoniae in mixed culture with S. aureus
Excerpt: (§1) Example 1 was repeated, this time using a mixed culture of K. pneumoniae CMCC 3077 and S. aureus OCC 102. The results for growth in the presence of AEP or alaphosphin are shown in FIGS. 7 and 8 respectively: empty columns represent growth of S. aureus, the shaded columns represent growth of K. pneumoniae. […] Accordingly, there is a considerable alaphosphin concentration range over which S. aureus will readily grow whilst K. pneumoniae will be inhibited. Even if K. pneumoniae cells lyse due to the toxic effect of AEP released intracellularly, the AEP is not toxic for S. aureus at the concentrations involved.

S. aureus OCC 102 [3] = test: growth on nutrient agar, mixed culture with K. pneumoniae (Example 6); assay type: cell-based, Staphylococcus aureus; settings: S. aureus in mixed culture with K. pneumoniae
Excerpt: as §1

E. faecalis OCC 604 = test: growth on nutrient agar, mixed culture with S. aureus (Example 7); assay type: cell-based, Enterococcus faecalis; settings: E. faecalis in mixed culture with S. aureus
Excerpt: (§2) Example 6 was repeated, this time using a mixed culture of S. aureus OCC 102 and E. faecalis OCC 604, in the presence of AEP or alaphosphin. The empty columns represent growth of S. aureus, the shaded columns represent growth of E. faecalis. […] Thus alaphosphin could be used, when incorporated at an appropriate concentration in a medium, to inhibit growth of organisms such as Enterococci in samples whilst allowing Staphylococci to grow and be detected.

S. aureus OCC 102 [4] = test: growth on nutrient agar, mixed culture with E. faecalis (Example 7); assay type: cell-based, Staphylococcus aureus; settings: S. aureus in mixed culture with E. faecalis
Excerpt: as §2

B. subtilis OCC 214 = test: growth on nutrient agar, mixed culture with K. pneumoniae (Example 8); assay type: cell-based, Bacillus subtilis
Excerpt: Example 6 was repeated, this time using a mixed culture of B. subtilis OCC 214 and K. pneumoniae CMCC 3077, in the presence of AEP or alaphosphin. The empty columns show the growth of B. subtilis, the shaded columns denote growth of K. pneumoniae.

[5] = tested on: S. indiana OCC 2412 and S. worthington OCC 634; test: Bioscreen growth in Lab-Lemco broth (Example 11), Salmonella strains; assay type: cell-based; settings: 64 μg/ml, Lab-Lemco broth pH 5.7, 37° C.
Method: (§3) Thus, Ala-AEP was dissolved in deionised water (7.0 mg/ml), filter sterilised, and an amount of the solution added to autoclaved Lab-Lemco broth (20 g/l; pH 5.7) to give a concentration of 70 μg/ml. Volumes (300 μl) of this solution were then pipetted into the wells of Bioscreen microtitre plates and 30 μl quantities of 1 in 10,000 dilutions of overnight cultures added (reducing the final alaphosphin concentration to 64 μg/m). Plates were then covered, incubated at 37° C., and the opacity of the organism suspensions measured using a Bioscreen instrument. Growth of the Salmonella strains was unaffected whereas the E. coli strains were all inhibited.
(§4) Typical results are shown in FIG. 16, which is a graph of Optical Density against time (hours). Growth of S. indiana OCC 2412 and S. worthington OCC 634 is denoted by crosses and circles respectively.

[6] = tested on: strains of Escherichia coli; test: Bioscreen growth in Lab-Lemco broth (Example 11), E. coli strains; assay type: cell-based; settings: 64 μg/ml, Lab-Lemco broth pH 5.7, 37° C., four E. coli strains
Method: as §3, §4

Citrobacter freundii 370 [7] = test: MIC / growth in DMSal (Example 16); assay type: cell-based; settings: Citrobacter freundii 370, DMSal, 1.5 μg/ml
Method: (§5) The experiments were conducted as follows: nutrient agar medium was autoclaved and, on cooling (but prior to setting) filter-sterilised alaphosphin or AEP were incorporated at final concentrations of 1 mM, 2 mM, 5 mM and 10 mM, and the medium used to pour plates. Control plates were prepared using nutrient agar without alaphosphin or AEP. A single colony of the organism under test was inoculated in 10 ml of nutrient broth and incubated (without agitation) at 37° C. for 4 hours.
(§6) Trp-AEP was compared to alaphosphin (Ala-AEP) for selective growth of Salmonella strains on DMSal agar.

Klebsiella aerogenes 323 = test: MIC / growth in DMSal (Example 16); assay type: cell-based; settings: Klebsiella aerogenes 323, DMSal, 1.5 μg/ml
Method: as §5, §6

[8] = tested on: Klebsiella pneumoniae 411; test: MIC / growth in DMSal (Example 16); assay type: cell-based; settings: Klebsiella pneumoniae 411, DMSal, 1.5 μg/ml
Method: as §5, §6

Salmonella arizonae 1200 = test: MIC / growth in DMSal (Example 16); assay type: cell-based; settings: Salmonella arizonae 1200, DMSal, 1.5 μg/ml
Method: as §5, §6

[9] = tested on: Salmonella enteriditis 723; test: MIC / growth in DMSal (Example 16); assay type: cell-based; settings: Salmonella enteriditis 723, DMSal, 1.5 μg/ml
Method: as §5, §6

[10] = tested on: Salmonella typhimurium 722; test: MIC / growth in DMSal (Example 16); assay type: cell-based; settings: Salmonella typhimurium 722, DMSal, 1.5 μg/ml
Method: as §5, §6

Salmonella virchow 703 = test: MIC / growth in DMSal (Example 16); assay type: cell-based; settings: Salmonella virchow 703, DMSal, 1.5 μg/ml
Method: as §5, §6

Serratia marcescens 217 = test: MIC / growth in DMSal (Example 16); assay type: cell-based; settings: Serratia marcescens 217, DMSal, 1.5 μg/ml
Method: as §5, §6

Citrobacter freundii 370 [11] = test: MIC in DMSal medium (Example 17); assay type: cell-based; settings: Citrobacter freundii, 370
[12] = tested on: Enterobacter sakazakii 1888; test: MIC in DMSal medium (Example 17); assay type: cell-based; settings: Cronobacter sakazakii, 1888
[13] = tested on: Enterococcus faecalis 640; test: MIC in DMSal medium (Example 17); assay type: cell-based; settings: Enterococcus faecalis, 640
Enterococcus faecium 220 = test: MIC in DMSal medium (Example 17); assay type: cell-based; settings: Enterococcus faecium, 220

C[C@H](N)C(=O)N[C@@H](C)P(=O)(O)O [alaphosphin, L-alanyl-L-1-aminoethylphosphonic acid] was tested. Which “concentration at which growth is completely inhibited” value [1] did it give?
Its value is ≥ 2 mM.

And the “concentration at which growth is completely inhibited” value [2]?
Its value is ≥ 2 mM.

And the “concentration at which growth is completely inhibited” value (K. pneumoniae CMCC 3077)?
The value was “above 1 mM”.

What about the “concentration at which growth is inhibited” value (S. aureus OCC 102 [3]) of the same molecule?
The value was 10 mM.

And the “concentration causing complete inhibition” value (E. faecalis OCC 604)?
The value was ≥ 2 mM.

What about the “concentration at which growth is inhibited” value (S. aureus OCC 102 [4]) of the same molecule?
Its value is ≥ 10 mM.

What about the “sensitivity of growth (in words)” value (B. subtilis OCC 214) of the same molecule?
The value was “insensitive”.

What about the “growth (optical density) in presence of the agent” value [5] of the same molecule?
Its value is “unaffected”.

And the “growth (optical density) in presence of the agent” value [6]?
Its value is “all inhibited”.

And the “growth with Ala-AEP (1.5 μg/ml)” value (Citrobacter freundii 370 [7])?
The value was “Growth”.

What about the “growth with Ala-AEP (1.5 μg/ml)” value (Klebsiella aerogenes 323) of the same molecule?
The value was “Growth”.

And the “growth with Ala-AEP (1.5 μg/ml)” value [8]?
Its value is “Growth”.

And the “growth with Ala-AEP (1.5 μg/ml)” value (Salmonella arizonae 1200)?
The value was “Growth”.

And the “growth with Ala-AEP (1.5 μg/ml)” value [9]?
The value was “Growth”.

What about the “growth with Ala-AEP (1.5 μg/ml)” value [10] of the same molecule?
Its value is “Growth”.

And the “growth with Ala-AEP (1.5 μg/ml)” value (Salmonella virchow 703)?
The value was “Growth”.

And the “growth with Ala-AEP (1.5 μg/ml)” value (Serratia marcescens 217)?
The value was “Growth”.

And the MIC (Citrobacter freundii 370 [11])?
Its MIC is 1 µg/mL (≈ 5.1 µM).

And the MIC [12]?
Its MIC is 0.075 µg/mL (≈ 0.382 µM).

What about the MIC [13] of the same molecule?
Its MIC is 10 µg/mL (≈ 51 µM).

And the MIC (Enterococcus faecium 220)?
The MIC was > 50 µg/mL.
